Assay results reported in patent US7375220B2, “Method of treating diseases and conditions associated with an altered level of amyloid β peptides and new enolcarboxamide compounds” (Boehringer Ingelheim Vetmedica GmbH, priority 2004, dated 2008).

Experiments:
Aβ42 = conditions: according to table 3 of WO 01/78721; cited from earlier work

Structure (SMILES) | melting point [°C] | Aβ42 level (Aβ42)
CN1C(=O)C(C(=O)Nc2ccc(Cl)cc2)c2ccc3c(c2S1(=O)=O)CCCC3 (centres unmarked) [Example 13, 3,4,7,8,9,10-Hexahydro-2-methyl-3-oxo-2H-naphtho[2,1-e]-1,2-thiazine-4-(4-chloro)carboxanilide 1,1-dioxide] | 106 to 108 | 
Cc1cc(NC(=O)C2=C(O)c3ccccc3S(=O)(=O)N2C)no1 [isoxicam] |  | do not lower or even increase the Aβ42 level
CN1C(C(=O)Nc2ccccn2)=C(O)c2ccccc2S1(=O)=O [piroxicam] |  | do not lower or even increase the Aβ42 level

Second part, led by results:

melting point [°C] | Structure (SMILES) | Aβ42 level (Aβ42)
198 to 199 | O=C(Nc1ccccc1C(F)(F)F)C1C(=O)N(Cc2ccc(F)cc2)S(=O)(=O)c2ccc(Cl)cc21 (centres unmarked) [Example 14, 6-Chloro-3,4-dihydro-2-(4-fluorobenzyl)-3-oxo-2H-1,2-benzothiazine-4-(2-trifluoromethyl)carboxanilide 1,1-dioxide] | 
183 to 184 | O=C(Nc1cccc(C(F)(F)F)c1)C1C(=O)N(Cc2ccc(F)cc2)S(=O)(=O)c2ccc(Cl)cc21 (centres unmarked) [Example 15, 6-Chloro-3,4-dihydro-2-(4-fluorobenzyl)-3-oxo-2H-1,2-benzothiazine-4-(3-trifluoromethyl)carboxanilide 1,1-dioxide] | 
